{"source": "patent JPH01254654A", "about": "“スルホン酸の誘導体及びその塩” (Dainippon Pharmaceutical Co Ltd, priority 1988, dated 1989)", "key": {"[1]": {"settings": "intracerebroventricular or parenteral administration; cited from earlier work"}, "[2]": {"experiment": "Analgesic action on oral administration (mean writhing number; method of JP 62-270555)", "type": "in vivo", "settings": "200mg/kg"}}, "data": [{"smiles": "O=C(O)CNC(=O)C(CS)Cc1ccccc1", "note": "(racemic) [チオルファン, ((It、L)−2−メルカプトメチル−3−フェニルプロピオニル〕グリシン]", "values": [{"measurement": "analgesic action", "setting": "[1]", "result": "鎮痛作用を有する"}]}, {"smiles": "CC(=O)SCC(CC1CN(Cc2ccccc2)CCO1)C(=O)Nc1ccc(S(=O)(=O)[O-])cc1.[Na+]", "note": "(centres unmarked) [実施例1]", "values": [{"measurement": "inhibition rate (analgesic action; (A-B) x 100/A, A: mean writhing number of control group, B: that of test substance group)", "setting": "[2]", "result": "61.6 χ"}]}]}
